From ChEMBL document CHEMBL5365413, “Optimizing metabolic stability of phosphodiesterase 5 inhibitors: Discovery of a potent N-(pyridin-3-ylmethyl)quinoline derivative targeting synaptic plasticity” (Bioorg Med Chem Lett, 2023)
The source made the active and inactive calls. No cut-off for these calls is given here.

Legend:
[1] = molecular target: cGMP-specific 3',5'-cyclic phosphodiesterase (Homo sapiens, UniProt O76074); experiment: Inhibition of human recombinant PDE5A1 by fluorescence based assay
[2] = Metabolic stability in human liver microsomes assessed as half life; assay type: ADME, Microsome
[3] = Metabolic stability in human liver microsomes assessed as intrinsic clearance; assay type: ADME, Microsome
[4] = Inhibition of PDE1 (unknown origin) by fluorescent based assay; parameters: species or system Homo sapiens
[5] = Inhibition of PDE8 (unknown origin) by fluorescent based assay; parameters: species or system Homo sapiens
[6] = Inhibition of PDE11 (unknown origin) by fluorescent enzymatic assay; parameters: species or system Homo sapiens
[7] = Inhibition of PDE3 (unknown origin) by fluorescent based assay; parameters: species or system Homo sapiens
[8] = Inhibition of PDE6 (unknown origin) by fluorescent based assay; parameters: species or system Homo sapiens
[9] = Inhibition of PDE10 (unknown origin) by fluorescent based assay; parameters: species or system Homo sapiens
[10] = Selectivity index, ratio of IC50 for inhibition of PDE6 (unknown origin) to IC50 for inhibition of human recombinant PDE5A1
[11] = Inhibition of PDE2 (unknown origin) by fluorescent based assay; parameters: species or system Homo sapiens
[12] = Inhibition of PDE9 (unknown origin) by fluorescent based assay; parameters: species or system Homo sapiens
Phosphodiesterase 4 = Phosphodiesterase 4 (Homo sapiens, UniProt P27815+Q08499+Q07343+Q08493); experiment: Inhibition of PDE4 (unknown origin) by fluorescent based assay; assay type: protein assay
Phosphodiesterase 7 = Phosphodiesterase 7 (Homo sapiens, UniProt Q13946+Q9NP56); experiment: Inhibition of PDE7 (unknown origin) by fluorescent based assay; assay type: protein assay
[13] = Selectivity index, ratio of IC50 for inhibition of PDE11 (unknown origin) to IC50 for inhibition of human recombinant PDE5A1
[14] = Selectivity index, ratio of IC50 for inhibition of PDE2 (unknown origin) to IC50 for inhibition of human recombinant PDE5A1
[15] = Selectivity index, ratio of IC50 for inhibition of PDE10 (unknown origin) to IC50 for inhibition of human recombinant PDE5A1
[16] = Selectivity index, ratio of IC50 for inhibition of PDE4 (unknown origin) to IC50 for inhibition of human recombinant PDE5A1
[17] = Selectivity index, ratio of IC50 for inhibition of PDE9 (unknown origin) to IC50 for inhibition of human recombinant PDE5A1
Hippocampus [18] = experiment: Neuroprotective activity against o-Tau perfused mouse hippocampus tissue assessed as restoration of synaptic plasticity by measuring hippocampal […] at 50 nM for 10 min followed by tetanus stimulation and measured for 2 hrs by electrophysiology analysis; assay type: functional, tissue-based; details: time 130.0 min
[19] = Selectivity index, ratio of IC50 for inhibition of PDE8 (unknown origin) to IC50 for inhibition of human recombinant PDE5A1
Hippocampus [20] = experiment: Neuroprotective activity against o-Tau perfused mouse hippocampus tissue assessed as restoration of synaptic plasticity by measuring residual potentiation at 50 nM for 10 min followed by tetanus stimulation and measured for 2 hrs by electrophysiology analysis relative to control; assay type: functional, tissue-based; details: time 130.0 min
[21] = Selectivity index, ratio of IC50 for inhibition of PDE7 (unknown origin) to IC50 for inhibition of human recombinant PDE5A1
Hippocampus [22] = experiment: Neuroprotective activity against mouse hippocampus tissue assessed as restoration of synaptic plasticity by measuring residual potentiation at 50 nM for 10 min followed by tetanus stimulation and measured for 2 hrs by electrophysiology analysis relative to control; assay type: functional, tissue-based; details: time 130.0 min
[23] = Selectivity index, ratio of IC50 for inhibition of PDE3 (unknown origin) to IC50 for inhibition of human recombinant PDE5A1
[24] = Selectivity index, ratio of IC50 for inhibition of PDE1 (unknown origin) to IC50 for inhibition of human recombinant PDE5A1

CCOC(=O)c1cnc2c(C3CC3)cc(C#N)cc2c1NCc1ccc(OC)nc1
IC50 [1]: 1300 nM

[2H]C([2H])(Nc1c(CO)cnc2c(C3CC3)cc(C#N)cc12)c1ccc(OC)c(Cl)c1
IC50 [1]: 5 nM
t1/2 [2]: 16.4 min
CLH [3]: 0.085 mL/min/mg

COc1ccc(CNc2c(CO)cnc3c(C4CC4)cc(C#N)cc23)cc1Cl
t1/2 [2]: 20.5 min
CLH [3]: 0.08 mL/min/mg

COc1cc(CNc2c(CO)cnc3c(C4CC4)cc(C#N)cc23)ccn1
IC50 [1]: 180 nM
t1/2 [2]: 28.8 min
CLH [3]: 0.048 mL/min/mg

COc1ncc(CNc2c(CO)cnc3c(C4CC4)cc(C#N)cc23)cc1Cl
IC50 [4]: Not Active
IC50 [5]: Not Active
IC50 [6]: Not Active
IC50 [7]: Not Active
IC50 [1]: 30 nM
IC50 [8]: 58 nM
IC50 [9]: Not Active
t1/2 [2]: 19.5 min
CLH [3]: 0.072 mL/min/mg
Ratio IC50 [10]: 1.9
IC50 [11]: > 10000 nM
IC50 [12]: Not Active

COc1ccc(CNc2c(CO)cnc3c(C4CC4)cc(C#N)cc23)cn1
IC50 ([4]; read-out: IC50): > 10 µM
IC50 (Phosphodiesterase 4): > 10 µM
IC50 ([5]; read-out: IC50): > 10 µM
IC50 (Phosphodiesterase 7): > 10 µM
Ratio IC50 [13]: > 500
Ratio IC50 [14]: 9
Ratio IC50 [15]: > 500
Ratio IC50 [16]: > 500
IC50 ([6]; read-out: IC50): > 10 µM
Ratio IC50 [17]: > 500
IC50 ([7]; read-out: IC50): > 10 µM
Activity (Hippocampus [18]): Active
Ratio IC50 [19]: > 500
IC50 [8]: 260 nM
IC50 ([9]; read-out: IC50): > 10 µM
Activity (Hippocampus [20]): Active
Ratio IC50 [21]: > 500
Activity (Hippocampus [22]): inactive
t1/2 [2]: 44.6 min
CLH [3]: 0.031 mL/min/mg
Ratio IC50 [10]: 13
Ratio IC50 [23]: > 500
IC50 [11]: 180 nM
IC50 ([12]; read-out: IC50): > 10 µM
Ratio IC50 [24]: > 500

COc1cc(CNc2c(CO)cnc3c(C4CC4)cc(C#N)cc23)cc(OC)c1OC
IC50 [1]: 3400 nM

N#Cc1cc(C2CC2)c2ncc(CO)c(NCc3ccc4c(c3)OCO4)c2c1
IC50 [1]: 190 nM
t1/2 [2]: 15.7 min
CLH [3]: 0.088 mL/min/mg

N#Cc1cc(C2CC2)c2ncc(CO)c(NCc3ccnc(Cl)c3)c2c1
IC50 [1]: 820 nM
t1/2 [2]: 17.3 min
CLH [3]: 0.08 mL/min/mg

Cn1ccc2cc(CNc3c(CO)cnc4c(C5CC5)cc(C#N)cc34)ccc21
IC50 [1]: 2800 nM
